Reference: BigSolDB 2.1

CSc1nc2cc(Oc3cccc(Cl)c3Cl)c(Cl)cc2[nH]1
solubility (mole fraction)
Settings	278.15 K	283.15 K	288.15 K	293.15 K	298.15 K	303.15 K	308.15 K	313.15 K	318.15 K
in 1,2-dichloroethane	0.00153	0.00187	0.00234	0.00289	0.00365	0.00429	0.00522	0.0063	0.00759
in acetonitrile	0.000629	0.000811	0.00106	0.00136	0.00164	0.00213	0.00264	0.0032	0.00396
in ethanol	0.00727	0.00878	0.0105	0.0126	0.0151	0.0181	0.0209	0.0244	0.0288
in ethyl acetate	0.0106	0.0125	0.0147	0.0173	0.0198	0.0232	0.0262	0.0306	0.0354
in ethyl formate	0.00501	0.00632	0.00795	0.00982	0.0121	0.0149	0.0177	0.0215	0.0258
in ethylene glycol	0.000323	0.000439	0.00057	0.000714	0.000934	0.0012	0.00152	0.00188	0.00231
in isobutanol	0.00455	0.00558	0.00698	0.00859	0.0109	0.0132	0.0161	0.0194	0.023
in isopropanol	0.00215	0.00272	0.00337	0.00411	0.00511	0.00619	0.00757	0.00914	0.0112
in methanol	0.00373	0.00458	0.00565	0.00691	0.00841	0.0101	0.0121	0.0144	0.017
in n-butanol	0.0221	0.0246	0.0273	0.0302	0.0333	0.0366	0.0399	0.0435	0.0473
in n-butyl acetate	0.0159	0.0181	0.0207	0.0232	0.0263	0.0298	0.0334	0.0372	0.0423
in n-pentyl acetate	0.0185	0.0214	0.0241	0.0277	0.0319	0.0361	0.0407	0.0453	0.0511
in n-propanol	0.00915	0.0108	0.0125	0.0146	0.017	0.0198	0.0229	0.0262	0.0301
in n-propyl acetate	0.0124	0.0146	0.017	0.0196	0.0228	0.0258	0.0299	0.0338	0.039
